Patent publication US6362206B1, “Azole compounds, their production and use” (Takeda Chemical Industries, Ltd., priority 1995, dated 2002)

Key:
Candida albicans TA = experiment: Protective effect against Candida albicans infection in mice (oral, ED50 from survival rate); format: in vivo; conditions: Crj: CDF1 mice inoculated i.v. with minimum lethal dose of Candida albicans TA, single oral dose immediately after infection as 30% HPCD solution, Reed and Muench method from survival rate 7 days after infection; for ED50: 168 h
Procedure: Test Method: Five-week-old Crj: CDF1 mice were inoculated with the minimum lethal dose of Candida albicans TA intravenously. The test compounds were administered orally once immediately after infection as a 30% HPCD (hydroxypropyl-β-cyclodextrin) solution. The activity was expressed in terms of ED50 value calculated by the Reed and Muench method from the survival rate 7 days after infection.

Compound | ED50 (mg/kg) PO (Candida albicans TA) [mg/kg] | melting point [°C] | ED50 (Candida albicans TA) [mg/kg]
1-[(1R,2R)-2-(2,4-difluorophenyl)-2-hydroxy-1-methyl-3-(1H-1,2,4-triazol-17 yl)propyl]-3-[4-(1H-1,2,4-triazol-1-yl)phenyl]-2-imidazolidinone [Compound 10] | 0.32 |  | 
1-[(1R,2R)-2-(2,4-difluorophenyloy)-2-hydroxy-1-methyl-3-(1H-1,2,4-triazol-1-yl)propyl]-3-[4-(2H-1,2,3-triazol-2-yl)phenyl]-2-imidazolidinone [Compound 14] | 0.32 |  | 
1-[(1R,2R)-2-(2-fluorophenyl)-2:-hydroxy-1-methyl-3-(1H-1,2,4-triazol-1-yl)propyl]-3-[4-(1H-1-tetrazolyl)phenyl]-2(1H,3H)-imidazolone [Compound 44] | 0.39 |  | 
1-[((1R,2R)-2-(2,4-difluorophenyl)-2-hydroxy-1-methyl-3-(1H-1,2,4-triazol-1-yl)propyl]-3-[4-(1H-1,2,4-triazol-1-yl)phenyl]-2(1H,3H)-imidazolone [Compound 9] | 0.16 |  | 
C[C@@H](n1ncn(-c2ccc(-n3cncn3)cc2)c1=O)[C@](O)(Cn1cncn1)c1ccc(F)cc1F [Compound 5, 2-[(1R,2R)-2-(2,4-difluorophenyl)-2-hydroxy-1-methyl-3-(1H-1,2,4-triazol-1-yl)propyl]-4-[4-(1H-1,2,4-triazol-1-yl)phenyl]-3(2H,4H)-1,2,4-triazolone] |  | 182 to 184 | 0.22
C[C@@H](n1ncn(-c2ccc(-n3ccnn3)cc2)c1=O)[C@](O)(Cn1cncn1)c1ccc(F)cc1F [Compound 6, 2-[(1R,2R)-2-(2,4-difluorophenyl)-2-hydroxy-1-methyl-3-(1H-1,2,4-triazol-1-yl)propyl]-4-[4-(1H-1,2,3-triazol-1-yl)phenyl]-3(2H,4H)-1,2,4-triazolone] |  | 219 to 220 | 0.35
C[C@@H](n1ncn(-c2ccc(-n3nccn3)cc2)c1=O)[C@](O)(Cn1cncn1)c1ccc(F)cc1F [Compound 7, 2-[(1R,2R)-2-(2,4-difluorophenyl)-2-hydroxy-1-methyl-3-(1H-1,2,4-triazol-1-yl)propyl]-4-(4-(2H-1,2,3-triazol-2-yl)phenyl]-3(2H,4H)-1,2,4-triazolone] |  | 213 to 215 | 0.096
C[C@@H](n1ccn(-c2ccc(-n3ccnn3)cc2)c1=O)[C@](O)(Cn1cncn1)c1ccc(F)cc1F [Compound 11, 1-[(1R,2R)-2-(2,4-difluorophenyl)-2-hydroxy-1-methyl-3-(1H-1,2,4-triazol-1-yl)propyl]-3-[4-(1H-1,2,3-triazol-1-yl)phenyl]-2(1H,3H)-imidazolone] |  | 178 to 181 | 0.45
C[C@@H](N1CCN(c2ccc(-n3ccnn3)cc2)C1=O)[C@](O)(Cn1cncn1)c1ccc(F)cc1F [Compound 12, 1-[(1R,2R)-2-(2,4-difluorophenyl)-2-hydroxy-1-methyl-3-(1H-1,2,4-triazol-1-yl)propyl]-3-[4-(1H-1,2,3-triazol-1-yl)phenyl]-2-imidazolidinone] |  |  | 0.71
C[C@@H](n1ccn(-c2ccc(-n3nccn3)cc2)c1=O)[C@](O)(Cn1cncn1)c1ccc(F)cc1F [Compound 13, 1-[(1R,2R)-2-(2,4-difluorophenyl)-2-hydroxy-1-methyl-3-(1H-1,2,4-triazol-1-yl)propyl]-3-[4-(2H-1,2,3-triazol-2-yl)phenyl]-2(1H,3H)-imidazolone] |  | 182 to 185 | 0.18
C[C@@H](n1ncn(-c2ccc(-n3cccn3)cc2)c1=O)[C@](O)(Cn1cncn1)c1ccc(F)cc1F [Compound 19, 2-[(1R,2R)-2-(2,4-difluorophenyl)-2-hydroxy-1-methyl-3-(1H-1,2,4-triazol-1-yl)propyl]-4-[4-(1H-1-pyrazolyl)phenyl]-3(2H,4H)-1,2,4-triazolone] |  |  | 0.39
C[C@@H](n1ncn(-c2ccc(-n3ncnn3)cc2)c1=O)[C@](O)(Cn1cncn1)c1ccc(F)cc1F [Compound 25, 2-[(1R,2R)-2-(2,4-difluorophenyl)-2-hydroxy-1-methyl-3-(1H-1,2,4-triazol-1-yl)propyl]-4-[4-(2H-2-tetrazolyl)phenyl]-3(2H,4H)-1,2,4-triazolone] |  |  | 0.088
C[C@@H](n1ccn(-c2ccc(-n3ncnn3)cc2)c1=O)[C@](O)(Cn1cncn1)c1ccc(F)cc1F [Compound 26, 1-[(1R,2R)-2-(2,4-difluorophenyl)-2-hydroxy-1-methyl-3-(1H-1,2,4-triazol-1-yl)propyl]-3-[4-(2H-2-tetrazolyl)phenyl]-2(1H,3H)-imidazolone] |  |  | 0.16
C[C@@H](N1CCN(c2ccc(-n3ncnn3)cc2)C1=O)[C@](O)(Cn1cncn1)c1ccc(F)cc1F [Compound 27, 1-[(1R,2R)-2-(2,4-difluorophenyl)-2-hydroxy-1-methyl-3-(1H-1,2,4-triazol-1-yl)propyl]-3-[4-(2H-2-tetrazolyl)phenyl]-2-imidazolidinone] |  |  | 0.18
C[C@@H](N1CCN(c2ccc(-n3ccnn3)cc2)C1=O)[C@](O)(Cn1cncn1)c1ccccc1F [Compound 34, [(1R,2R)-2-(2-fluorophenyl)-2-hydroxy-1-methyl-3-(1H-1,2,4-triazol-1-yl)propyl]-3-[4-(1H-1,2,3-triazol-1-yl)phenyl]-2-imidazolidinone] |  |  | 0.8
C[C@@H](N1CCN(c2ccc(-n3nccn3)cc2)C1=O)[C@](O)(Cn1cncn1)c1ccccc1F [Compound 35, 1-[(1R,2R)-2-(2-fluorophenyl)-2-hydroxy-1-methyl-3-(1H-1,2,4-triazol-1-yl)propyl]-3-[4-(2H-1,2,3-triazol-2-yl)phenyl]-2-imidazolidinone] |  | 178 to 179 | 0.71
C[C@@H](n1ccn(-c2ccc(-n3cncn3)cc2)c1=O)[C@](O)(Cn1cncn1)c1ccccc1F [Compound 38, 1-[(1R,2R)-2-(2-fluorophenyl)-2-hydroxy-1-methyl-3-(1H-1,2,4-triazol-1-yl)propyl]-3-[4-[1H-1,2,4-triazol-1-yl)phenyl]-2(1H,3H)-imidazolone] |  |  | 0.5
C[C@@H](N1CCN(c2ccc(-n3cncn3)cc2)C1=O)[C@](O)(Cn1cncn1)c1ccccc1F [Compound 39, 1-[(1R,2R)-2-(2-fluorophenyl)-2-hydroxy-1-methyl-3-(1H-1,2,4-triazol-1-yl)propyl]-3-[4-(1H-1,2,4-triazol-1-yl)phenyl]-2-imidazolidinone] |  |  | 0.5
C[C@@H](n1ccn(-c2ccc(-n3ncnn3)cc2)c1=O)[C@](O)(Cn1cncn1)c1ccccc1F [Compound 40, 1-[(1R,2R)-2-(2-fluorophenyl)-2-hydroxy-1-methyl-3-(1H-1,2,4-triazol-1-yl)propyl]-3-[4-(2H-2-tetrazolyl)phenyl]-2(1H,3H)-imidazolone] |  |  | 0.35
C[C@@H](N1CCN(c2ccc(-n3ncnn3)cc2)C1=O)[C@](O)(Cn1cncn1)c1ccccc1F [Compound 41, 1-[(1R,2R)-2-(2-fluorophenyl)-2-hydroxy-1-methyl-3-(1H-1,2,4-triazol-1-yl)propyl]-3-[4-(2H-2-tetrazolyl)phenyl]-2-imidazolidinone] |  |  | 0.8
C[C@@H](n1ccn(-c2ccc(-n3cnnn3)cc2)c1=O)[C@](O)(Cn1cncn1)c1ccc(F)cc1F [Compound 42, 1-[(1R,2R)-2-(2,4-difluorophenyl)-2-hydroxy-1-methyl-3-(1H-1,2,4-triazol-1-yl)propyl]-3-[4-(1H-1-tetrazolyl)phenyl]-2(1H,3H)-imidazolone] |  |  | 0.22
C[C@@H](N1CCN(c2ccc(-n3cnnn3)cc2)C1=O)[C@](O)(Cn1cncn1)c1ccc(F)cc1F [Compound 43, 1-[(1R,2R)-2-(2,4— difluorophenyl)-2-hydroxy-1-methyl-3-(1H-1,2,4-triazol-1-yl)propyl]-3-[4-(1H-1-tetrazolyl)phenyl]-2-imidazolidinone] |  |  | 0.89
C[C@@H](N1CCN(c2ccc(-n3cnnn3)cc2)C1=O)[C@](O)(Cn1cncn1)c1ccccc1F [Compound 45, 1-[(1R,2R)-2-(2-fluorophenyl)-2-hydroxy-1-methyl-3-(1H-1,2,4-triazol-1-yl)propyl]-3-[4-(1H-1-tetrazolyl)phenyl]-2-imidazolidinone] |  |  | 0.45
